Results reported in patent US11306331B2, “Processes for the production of hydroxycinnamic acids using polypeptides having tyrosine ammonia lyase activity” (CysBio ApS, priority 2014, dated 2022).

T1: Saccharothrix espanaensis SeSam8 (Protein GI 433607630), His-tagged (N-terminal tag SEQ ID NO: 11) (Saccharothrix espanaensis, UniProt Q2EYY5)
T1 sequence (Q2EYY5 1-510): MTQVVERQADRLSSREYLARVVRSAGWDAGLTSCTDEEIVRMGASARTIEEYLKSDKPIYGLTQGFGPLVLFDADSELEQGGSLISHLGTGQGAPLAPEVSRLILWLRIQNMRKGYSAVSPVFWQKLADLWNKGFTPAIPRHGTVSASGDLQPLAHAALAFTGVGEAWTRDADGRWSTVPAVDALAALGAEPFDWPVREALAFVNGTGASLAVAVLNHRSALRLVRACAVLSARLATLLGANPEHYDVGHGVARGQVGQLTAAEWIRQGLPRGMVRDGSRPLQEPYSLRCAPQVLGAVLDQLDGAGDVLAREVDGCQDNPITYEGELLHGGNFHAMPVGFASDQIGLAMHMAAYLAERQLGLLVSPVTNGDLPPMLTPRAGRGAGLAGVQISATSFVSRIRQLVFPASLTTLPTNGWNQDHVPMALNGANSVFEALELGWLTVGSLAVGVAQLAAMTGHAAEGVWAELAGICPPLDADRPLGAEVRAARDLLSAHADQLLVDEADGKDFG

T2: Flavobacterium johnsoniae FjXAL tyrosine ammonia lyase (Protein GI 146298870), SEQ ID NO: 1, His-tagged (N-terminal tag SEQ ID NO: 11) (Flavobacterium johnsoniae, UniProt A5FKY3)
T2 sequence (A5FKY3 1-506): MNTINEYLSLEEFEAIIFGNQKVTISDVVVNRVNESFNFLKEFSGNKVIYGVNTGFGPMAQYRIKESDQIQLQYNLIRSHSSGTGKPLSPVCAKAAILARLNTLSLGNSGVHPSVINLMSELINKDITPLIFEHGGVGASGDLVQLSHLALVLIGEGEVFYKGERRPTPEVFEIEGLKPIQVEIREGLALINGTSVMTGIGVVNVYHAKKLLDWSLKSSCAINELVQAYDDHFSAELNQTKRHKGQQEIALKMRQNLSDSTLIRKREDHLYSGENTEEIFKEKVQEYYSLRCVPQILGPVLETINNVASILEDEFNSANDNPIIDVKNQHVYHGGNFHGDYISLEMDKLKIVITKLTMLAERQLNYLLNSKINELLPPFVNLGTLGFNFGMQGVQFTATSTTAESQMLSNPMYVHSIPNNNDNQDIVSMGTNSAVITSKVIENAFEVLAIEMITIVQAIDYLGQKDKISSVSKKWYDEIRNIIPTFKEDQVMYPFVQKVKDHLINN

B1: Flavobacterium johnsoniae FjXAL tyrosine ammonia lyase (Protein GI 146298870), SEQ ID NO: 1, His-tagged (N-terminal tag SEQ ID NO: 11) (Flavobacterium … (protein)
chain: T2 sequence (A5FKY3 1-506)

Tests used:
[1] = target: T1, Saccharothrix espanaensis SeSam8 (Protein GI 433607630), His-tagged (N-terminal tag SEQ ID NO: 11); assay: In vitro kinetics of purified His-tagged SeSam8 (tyrosine/phenylalanine ammonia lyase activity, absorbance at 315/295 nm); type: biochemical
From the text: Four of the enzymes were further purified by His-tag purification as follows. A DNA linker (5′ phosphorylated oligonucleotides CBJP559 and CBJP560, Table 5) was inserted in place of the sequence between the NdeI and BgIII site in plasmid pCDFDuet-1. This would result in the addition of the amino acids MAHHHHHHENLYFQ (SEQ ID NO: 11) to the N-terminal end of the polypeptides. The resulting plasmid was amplified with primers CBJP575 and CBJP576 (table 5) and the genes were amplified and combined using the Gibson reaction (New England Biolabs). The PCR amplification used the same reverse primers as in example 1, but the forward primers matching the His-tag site of the linker (Table 5). Plasmids carrying the genes (e.g. FjXAL, FIG. 4) were transformed into electrocompetent E. coli BL21(DE3)pLysS cells (Life Technologies) and selected on LB plates containing 50 ug/mL streptomycin.
Strains expressing His-tagged versions of the enzymes were grown in LB media overnight at 37° C. and diluted into fresh LB media with 1 mM IPTG and growth was propagated overnight (approximately 18 h) at 30° C. […]
(§1) Enzymatic assays were performed in 200 μL volumes in wells in a UV transparent 96-well plate, by following the increase in absorbance at 315 nm (pHCA) or 295 nm (CA). […] The enzymatic activity was calculated as U/g, where U is defined as μmol substrate converted per minute.

[2] = target: T2, Flavobacterium johnsoniae FjXAL tyrosine ammonia lyase (Protein GI 146298870), SEQ ID NO: 1, His-tagged (N-terminal tag SEQ ID NO: 11); assay: In vitro kinetics of purified His-tagged FjXAL (tyrosine/phenylalanine ammonia lyase activity, absorbance at 315/295 nm); type: biochemical
Procedure: The tyrosine ammonia lyase activity may for instance be determined in accordance to the following method: Enzymatic assays are performed in 200 μL volumes in wells in a UV transparent 96-well plate, by following the increase in absorbance at 315 nm (pHCA) using spectrophotometry or HPLC with UV detection. The reaction mixtures contain 2 μg of purified protein and are initiated by adding 1 mM tyrosine or 6 mM after equilibration to 30° C. The enzymatic activity is calculated as U/g, where U is defined as μmol substrate converted per minute. Negative controls contain no purified protein. Kinetic constants Km and vmax are determined from assays containing 1.56 μM to 200 μM tyrosine. See also Kyndt et al. (2002).
Four of the enzymes were further purified by His-tag purification as follows. A DNA linker (5′ phosphorylated oligonucleotides CBJP559 and CBJP560, Table 5) was inserted in place of the sequence between the NdeI and BgIII site in plasmid pCDFDuet-1. This would result in the addition of the amino acids MAHHHHHHENLYFQ (SEQ ID NO: 11) to the N-terminal end of the polypeptides. […]
as §1

[3] = test system: E. coli BL21(DE3)pLysS cells; assay: Titers of hydroxycinnamic acids in supernatants of E. coli cultures expressing TAL homologs; type: cell-based, Escherichia coli; details: 16 hours, 37° C., duplicate
Procedure: E. coli strains described in Example 1 were used. M9 medium with 0.2% glucose and 0.5 mM IPTG also containing either tyrosine (204 μM), L-dopa (194 μM) or 3-O-methyldopa (262 μM) was transferred as 3-mL aliquots into a 24-well deep-well plate (Enzyscreen). Aliquots were taken for HPLC before the wells were inoculated with 200 μL of overnight cultures of the strains. The plates were placed at 37° C. with shaking for 16 hours. Samples of the supernatant were withdrawn after two rounds of centrifugation. The samples were subjected to HPLC along with chemical standards as described in Example 1. p-coumaric acid, caffeic acid and ferulic acid was measured by absorbance at 333 nm. Tyrosine, L-dopa and 3-O-methyldopa were measured by fluorescence (excitation at 274 nm, emission at 303 nm).
There was no measurable product in the medium before inoculation.

[4] = 30° C, 1.56 μM to 200 μM tyrosine or 193 μM to 25 mM phenylalanine
[5] = ratio of Kcat/Km for Tyr over Phe

Row | Molecule | Kcat [1, 4] | TAL/PAL [1, 5] | Kcat [2, 4] | TAL/PAL [2, 5] | Titer of ferulic acid ([3]; M9 + 3-O-methyldopa (262 μM)) | Titer of caffeic acid ([3]; M9 + L-dopa (194 μM)) | Titer of p-coumaric acid ([3]; M9 + tyrosine (204 μM))
1 | N[C@@H](Cc1ccc(O)cc1)C(=O)O [Tyr, tyrosine] | 0.014 s⁻¹ | 730 | 0.0212 s⁻¹ | 3000 |  |  | 
2 | B1 |  |  |  |  | 1.1 ± 0.3 µM | 5.7 ± 1.0 µM | 215 ± 11.1 µM
